# Experimental data: ChEMBL document CHEMBL1127465, “Rational design, synthesis, and crystallographic analysis of a hydroxyethylene-based HIV-1 protease inhibitor containing a heterocyclic P1'--P2' amide bond isostere” (J Med Chem, 1994)
# Molecular target: Human immunodeficiency virus type 1 protease (Human immunodeficiency virus 1, UniProt Q72874)
# Experiment: Apparent inhibition constant against recombinant HIV-1 protease
row,Structure (SMILES),Ki
1,CC(=O)c1c[nH]c([C@H](Cc2ccccc2)C[C@H](O)[C@H](Cc2ccccc2)NC(=O)OC(C)(C)C)n1,370 nM
2,CC(C)C(O)c1cnc([C@H](Cc2ccccc2)C[C@H](O)[C@H](Cc2ccccc2)NC(=O)OC(C)(C)C)[nH]1 (stereo not given in full),2700 nM
3,CC(C)(C)OC(=O)N[C@@H](Cc1ccccc1)[C@@H](O)C[C@@H](Cc1ccccc1)c1nc(C=O)c[nH]1,3500 nM
4,CC(C)(C)OC(=O)N[C@@H](Cc1ccccc1)C(=O)C(O)CN[C@@H](Cc1ccccc1)C(=O)NCC(N)=O (stereo not given in full),120 nM
5,CC(C)C(=O)c1cnc([C@H](Cc2ccccc2)C[C@H](O)[C@H](Cc2ccccc2)NC(=O)OC(C)(C)C)[nH]1,83 nM
6,C=CC(C)(C)C(=O)c1cnc([C@H](Cc2ccccc2)C[C@H](O)[C@H](Cc2ccccc2)NC(=O)OC(C)(C)C)[nH]1,270 nM
7,CC(C)[C@@H](NC(=O)[C@@H](Cc1ccccc1)NCC(O)C(=O)[C@H](Cc1ccccc1)NC(=O)[C@H](C)NC(=O)OCc1ccccc1)C(=O)O (stereo not given in full),0.7 nM
8,CCCC(=O)c1c[nH]c([C@H](Cc2ccccc2)C[C@H](O)[C@H](Cc2ccccc2)NC(=O)OC(C)(C)C)n1,150 nM
9,CC(O)c1cnc([C@H](Cc2ccccc2)C[C@H](O)[C@H](Cc2ccccc2)NC(=O)OC(C)(C)C)[nH]1 (stereo not given in full),13300 nM
10,CCC(=O)c1cnc([C@H](Cc2ccccc2)C[C@H](O)[C@H](Cc2ccccc2)NC(=O)OC(C)(C)C)[nH]1,92 nM
